Converted amounts (≈) assume the structure as drawn.
Columns and labels:
Staphylococcus aureus [1] = assay: Bactericidal activity against Staphylococcus aureus ATCC 25923 after 24 hrs; assay type: functional; conditions: ATCC 25923, 24 h, read-out: MBC99.9
[2] = tested on: Staphylococcus epidermidis; assay: Antimicrobial activity against methicillin-resistant Staphylococcus epidermidis isolate 460/11 after 18 hrs by twofold serial broth dilution method; assay type: functional; conditions: isolate 460/11, 18 h
[3] = tested on: Staphylococcus epidermidis; assay: Antimicrobial activity against methicillin-resistant Staphylococcus epidermidis isolate 458/11 after 18 hrs by twofold serial broth dilution method; assay type: functional; conditions: isolate 458/11, 18 h
[4] = tested on: Staphylococcus epidermidis; assay: Antimicrobial activity against methicillin-resistant Staphylococcus epidermidis isolate 470/11 after 18 hrs by twofold serial broth dilution method; assay type: functional; conditions: isolate 470/11, 18 h
[5] = tested on: Staphylococcus epidermidis; assay: Antimicrobial activity against methicillin-resistant Staphylococcus epidermidis isolate 404/10 after 18 hrs by twofold serial broth dilution method; assay type: functional; conditions: isolate 404/10, 18 h
[6] = tested on: Staphylococcus epidermidis; assay: Bactericidal activity against methicillin-resistant Staphylococcus epidermidis isolate 424/10 after 24 hrs; assay type: functional; conditions: isolate 424/10, 24 h, read-out: MBC99.9
[7] = tested on: Staphylococcus epidermidis; assay: Bactericidal activity against methicillin-resistant Staphylococcus epidermidis isolate 404/10 after 24 hrs; assay type: functional; conditions: isolate 404/10, 24 h, read-out: MBC99.9
[8] = tested on: Staphylococcus epidermidis; assay: Bactericidal activity against methicillin-resistant Staphylococcus epidermidis isolate 409/10 after 24 hrs; assay type: functional; conditions: isolate 409/10, 24 h, read-out: MBC99.9
[9] = tested on: Staphylococcus epidermidis; assay: Bactericidal activity against methicillin-resistant Staphylococcus epidermidis isolate 460/11 after 24 hrs; assay type: functional; conditions: isolate 460/11, 24 h, read-out: MBC99.9
Staphylococcus aureus [10] = assay: Antimicrobial activity against Staphylococcus aureus NCTC 4163 after 18 hrs by twofold serial broth dilution method; assay type: functional; conditions: NCTC 4163, 18 h
[11] = tested on: Staphylococcus epidermidis; assay: Bactericidal activity against methicillin-resistant Staphylococcus epidermidis isolate 459/11 after 24 hrs; assay type: functional; conditions: isolate 459/11, 24 h, read-out: MBC99.9
Escherichia coli [12] = assay: Bactericidal activity against Escherichia coli NCTC 8196 after 24 hrs; assay type: functional; conditions: NCTC 8196, 24 h, read-out: MBC99.9
Bacillus subtilis [13] = assay: Genotoxicity in rec-positive Bacillus subtilis H17 at 2 ug/9 mm disc after 24 hrs by disc diffusion method; assay type: toxicity, organism-based
[14] = tested on: Staphylococcus epidermidis; assay: Bactericidal activity against methicillin-resistant Staphylococcus epidermidis isolate 461/11 after 24 hrs; assay type: functional; conditions: isolate 461/11, 24 h, read-out: MBC99.9
[15] = tested on: Staphylococcus epidermidis; assay: Antimicrobial activity against methicillin-resistant Staphylococcus epidermidis isolate 461/11 after 18 hrs by twofold serial broth dilution method; assay type: functional; conditions: isolate 461/11, 18 h
Staphylococcus aureus [16] = assay: Bactericidal activity against Staphylococcus aureus […] after 24 hrs; assay type: functional; conditions: read-out: MBC99.9
[17] = tested on: Staphylococcus epidermidis; assay: Antimicrobial activity against methicillin-resistant Staphylococcus epidermidis isolate 459/11 after 18 hrs by twofold serial broth dilution method; assay type: functional; conditions: isolate 459/11, 18 h
Staphylococcus aureus [18] = assay: Bactericidal activity against Staphylococcus aureus ATCC 6538 after 24 hrs; assay type: functional; conditions: ATCC 6538, 24 h, read-out: MBC99.9
Pseudomonas aeruginosa [19] = assay: Antimicrobial activity against Pseudomonas aeruginosa ATCC 27853 after 18 hrs by twofold serial broth dilution method; assay type: functional; conditions: ATCC 27853, 18 h
[20] = tested on: Staphylococcus epidermidis; assay: Bactericidal activity against methicillin-resistant Staphylococcus epidermidis isolate 422/10 after 24 hrs; assay type: functional; conditions: isolate 422/10, 24 h, read-out: MBC99.9
Escherichia coli [21] = assay: Antimicrobial activity against Escherichia coli ATCC 25922 after 18 hrs by twofold serial broth dilution method; assay type: functional; conditions: ATCC 25922, 18 h
[22] = tested on: Staphylococcus epidermidis; assay: Antimicrobial activity against Staphylococcus epidermidis ATCC 35984 after 18 hrs by twofold serial broth dilution method; assay type: functional; conditions: ATCC 35984, 18 h
Staphylococcus aureus [23] = assay: Bactericidal activity against Staphylococcus aureus NCTC 4163 after 24 hrs; assay type: functional; conditions: NCTC 4163, 24 h, read-out: MBC99.9
[24] = tested on: Staphylococcus epidermidis; assay: Bactericidal activity against methicillin-resistant Staphylococcus epidermidis isolate 457/11 after 24 hrs; assay type: functional; conditions: isolate 457/11, 24 h, read-out: MBC99.9
Pseudomonas aeruginosa [25] = assay: Bactericidal activity against Pseudomonas aeruginosa NCTC 6749 after 24 hrs; assay type: functional; conditions: NCTC 6749, 24 h, read-out: MBC99.9
Escherichia coli [26] = assay: Bactericidal activity against Escherichia coli ATCC 10538 after 24 hrs; assay type: functional; conditions: ATCC 10538, 24 h, read-out: MBC99.9
[27] = tested on: Staphylococcus epidermidis; assay: Antimicrobial activity against Staphylococcus epidermidis ATCC 12228 after 18 hrs by twofold serial broth dilution method; assay type: functional; conditions: ATCC 12228, 18 h
[28] = tested on: Staphylococcus epidermidis; assay: Antimicrobial activity against methicillin-resistant Staphylococcus epidermidis isolate 403/10 after 18 hrs by twofold serial broth dilution method; assay type: functional; conditions: isolate 403/10, 18 h
[29] = tested on: Staphylococcus epidermidis; assay: Bactericidal activity against methicillin-resistant Staphylococcus epidermidis isolate 455/11 after 24 hrs; assay type: functional; conditions: isolate 455/11, 24 h, read-out: MBC99.9
Escherichia coli [30] = assay: Antimicrobial activity against Escherichia coli ATCC 10538 after 18 hrs by twofold serial broth dilution method; assay type: functional; conditions: ATCC 10538, 18 h
[31] = tested on: Staphylococcus epidermidis; assay: Antimicrobial activity against methicillin-resistant Staphylococcus epidermidis isolate 407/10 after 18 hrs by twofold serial broth dilution method; assay type: functional; conditions: isolate 407/10, 18 h
[32] = tested on: Staphylococcus epidermidis; assay: Antimicrobial activity against methicillin-resistant Staphylococcus epidermidis isolate 469/11 after 18 hrs by twofold serial broth dilution method; assay type: functional; conditions: isolate 469/11, 18 h
Bacillus subtilis [33] = assay: Genotoxicity in rec-negative Bacillus subtilis M45 at 2 ug/9 mm disc after 24 hrs by disc diffusion method; assay type: toxicity, organism-based
Escherichia coli [34] = assay: Bactericidal activity against Escherichia coli ATCC 25922 after 24 hrs; assay type: functional; conditions: ATCC 25922, 24 h, read-out: MBC99.9
[35] = tested on: Staphylococcus epidermidis; assay: Bactericidal activity against methicillin-resistant Staphylococcus epidermidis isolate 407/10 after 24 hrs; assay type: functional; conditions: isolate 407/10, 24 h, read-out: MBC99.9
[36] = tested on: Staphylococcus epidermidis; assay: Bactericidal activity against methicillin-resistant Staphylococcus epidermidis isolate 405/10 after 24 hrs; assay type: functional; conditions: isolate 405/10, 24 h, read-out: MBC99.9
[37] = tested on: Staphylococcus epidermidis; assay: Bactericidal activity against methicillin-resistant Staphylococcus epidermidis isolate 403/10 after 24 hrs; assay type: functional; conditions: isolate 403/10, 24 h, read-out: MBC99.9
[38] = tested on: Staphylococcus epidermidis; assay: Bactericidal activity against methicillin-resistant Staphylococcus epidermidis isolate 454/11 after 24 hrs; assay type: functional; conditions: isolate 454/11, 24 h, read-out: MBC99.9
Pseudomonas aeruginosa [39] = assay: Bactericidal activity against Pseudomonas aeruginosa ATCC 27853 after 24 hrs; assay type: functional; conditions: ATCC 27853, 24 h, read-out: MBC99.9
Bacillus anthracis = assay: Antimicrobial activity against Bacillus anthracis 34F2 after 18 hrs by twofold serial broth dilution method; assay type: functional; conditions: 34F2, 18 h
Pseudomonas aeruginosa [40] = assay: Antimicrobial activity against Pseudomonas aeruginosa ATCC 15442 after 18 hrs by twofold serial broth dilution method; assay type: functional; conditions: ATCC 15442, 18 h
[41] = tested on: Staphylococcus epidermidis; assay: Antimicrobial activity against methicillin-resistant Staphylococcus epidermidis isolate 409/10 after 18 hrs by twofold serial broth dilution method; assay type: functional; conditions: isolate 409/10, 18 h
[42] = tested on: Staphylococcus epidermidis; assay: Bactericidal activity against Staphylococcus epidermidis ATCC 12228 after 24 hrs; assay type: functional; conditions: ATCC 12228, 24 h, read-out: MBC99.9

Compound: CC[C@@H](C(=O)[C@@H](C)[C@@H](O)[C@H](C)[C@@H]1O[C@@H]([C@@H](CC)C(=O)N(CCO)CCO)CC[C@@H]1C)[C@H]1O[C@]2(C=C[C@@H](O)[C@]3(CC[C@@](C)([C@H]4CC[C@](O)(CC)[C@H](C)O4)O3)O2)[C@H](C)C[C@@H]1C
- MBC (Staphylococcus aureus [1]): 256 µg/mL (≈ 305 µM)
- MIC [2]: 4 µg/mL (≈ 4.77 µM)
- MIC [3]: 4 µg/mL (≈ 4.77 µM)
- MIC [4]: 4 µg/mL (≈ 4.77 µM)
- MIC [5]: 4 µg/mL (≈ 4.77 µM)
- MBC [6]: 128 µg/mL (≈ 153 µM)
- MBC [7]: 256 µg/mL (≈ 305 µM)
- MBC [8]: 256 µg/mL (≈ 305 µM)
- MBC [9]: 256 µg/mL (≈ 305 µM)
- MIC (Staphylococcus aureus [10]): 4 µg/mL (≈ 4.77 µM)
- MBC [11]: 256 µg/mL (≈ 305 µM)
- MBC (Escherichia coli [12]): > 256 µg/mL
- diameter of the inhibition zone (DIZ) (Bacillus subtilis [13]): 28 mm
- MBC [14]: 128 µg/mL (≈ 153 µM)
- MIC [15]: 4 µg/mL (≈ 4.77 µM)
- MBC (Staphylococcus aureus [16]): 128 µg/mL (≈ 153 µM)
- MIC [17]: 4 µg/mL (≈ 4.77 µM)
- MBC (Staphylococcus aureus [18]): 256 µg/mL (≈ 305 µM)
- MIC (Pseudomonas aeruginosa [19]): > 256 µg/mL
- MBC [20]: 128 µg/mL (≈ 153 µM)
- MIC (Escherichia coli [21]): > 256 µg/mL
- MIC [22]: 4 µg/mL (≈ 4.77 µM)
- MBC (Staphylococcus aureus [23]): 256 µg/mL (≈ 305 µM)
- MBC [24]: 256 µg/mL (≈ 305 µM)
- MBC (Pseudomonas aeruginosa [25]): > 256 µg/mL
- MBC (Escherichia coli [26]): > 256 µg/mL
- MIC [27]: 4 µg/mL (≈ 4.77 µM)
- MIC [28]: 4 µg/mL (≈ 4.77 µM)
- MBC [29]: 256 µg/mL (≈ 305 µM)
- MIC (Escherichia coli [30]): > 256 µg/mL
- MIC [31]: 4 µg/mL (≈ 4.77 µM)
- MIC [32]: 4 µg/mL (≈ 4.77 µM)
- diameter of the inhibition zone (DIZ) (Bacillus subtilis [33]): 29 mm
- MBC (Escherichia coli [34]): > 256 µg/mL
- MBC [35]: 128 µg/mL (≈ 153 µM)
- MBC [36]: 128 µg/mL (≈ 153 µM)
- MBC [37]: 128 µg/mL (≈ 153 µM)
- MBC [38]: 128 µg/mL (≈ 153 µM)
- MBC (Pseudomonas aeruginosa [39]): > 256 µg/mL
- MIC (Bacillus anthracis): 2 µg/mL (≈ 2.39 µM)
- MIC (Pseudomonas aeruginosa [40]): > 256 µg/mL
- MIC [41]: 8 µg/mL (≈ 9.55 µM)
- MBC [42]: 256 µg/mL (≈ 305 µM)

Source: ChEMBL document CHEMBL3400015, “Tertiary amides of Salinomycin: A new group of antibacterial agents against Bacillus anthracis and methicillin-resistant Staphylococcus epidermidis” (Bioorg Med Chem Lett, 2015)
